US9120774B2 (University of Kansas, priority 2009, dated 2015)
Like-named read-outs stand apart in the source and are kept apart here. Blank lines part the entries; values can stand above or below the molecule they belong to.

Tests used:
Format in all cases: cell-based
[1] = tested on: MM2 (metastatic mammary tumor cancer cells); assay: Anti-proliferation activity against MM2 cells (MTS/PMS); conditions: 72 hours
Protocol: (§1) Cells were maintained in a 1:1 mixture of Advanced DMEM/F12 (Gibco) supplemented with non-essential amino acids, L-glutamine (2 mM), streptomycin (500 μg/mL), penicillin (100 units/mL), and 10% FBS. Cells were grown to confluence in a humidified atmosphere (37° C., 5% CO2), seeded (2000/well, 100 μL) in 96-well plates, and allowed to attach overnight. Compound or GDA at varying concentrations in DMSO (1% DMSO final concentration) was added, and cells were returned to the incubator for 72 hours. At 72 hours, the number of viable cells was determined using an MTS/PMS cell proliferation kit (Promega) per the manufacturer's instructions. Cells incubated in 1% DMSO were used at 100% proliferation, and values were adjusted accordingly. IC50 values were calculated from separate experiments performed in triplicate using GraphPad Prism.

[2] = tested on: MCF-7 (estrogen receptor positive breast cancer cells); assay: Anti-proliferation activity against MCF-7 cells (MTS/PMS)
Outline: (§2)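 Cells seeded at 2000/well, attached overnight, then exposed to compound at varying concentrations (1% DMSO final) for 72 hours at 37° C. Viable cells read by MTS/PMS, normalised to 1% DMSO as 100% proliferation. IC50 from separate triplicate experiments.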

[3] = tested on: A549 (human alveolar basal epithelial cells); assay: Anti-proliferation activity against A549 cells (MTS/PMS); conditions: 72 hours
Protocol: as §1

[4] = tested on: SkBr3 (Her2 overexpressing breast cancer cells); assay: Anti-proliferation activity against SkBr3 cells (MTS/PMS)
Outline: as §2

[5] = tested on: LN3 (metastatic human prostate cancer cells); assay: Anti-proliferation activity against LN3 cells (MTS/PMS); conditions: 72 hours
Protocol: as §1

cancer cell lines = assay: Anti-proliferative activity, statements covering several cancer cell lines
Protocol: Upon completion of synthesis of library of compounds in Examples 23 and 24, the compounds were evaluated for anti-proliferative activity against SkBr3 (Her2 overexpressing breast cancer cells), MCF-7 (estrogen receptor positive breast cancer cells), HCT-116 (colon cancer cells characterized by wild-type p53), PL45 (pancreatic cancer cells), LNCaP (androgen sensitive prostate cancer cells) and PC-3 (androgen independent prostate cancer cells) cell lines. […] The monosubstituted benzamide variants improved activity.
as §1, with “ng/mL),” for “μg/mL),”, “μl)” for “μL)”
as §1

[6] = Table 8, unsaturated azasugar analogues
[7] = Table 9, azasugar analogues on 8-methyl coumarin
[8] = Table 9, azasugar analogues on 8-methyl coumarin, 72 hours, read-out: IC50 MCF-7
[9] = Table 9, azasugar analogues on 8-methyl coumarin, 72 hours, read-out: IC50 SKBr3
[10] = Table 10, azasugar analogues on 6-methoxy coumarin
[11] = Homo sapiens, MCF7, Table 10, azasugar analogues on 6-methoxy coumarin, 72 hours, read-out: IC50 MCF-7
[12] = Homo sapiens, A549, Table 10, azasugar analogues on 6-methoxy coumarin
[13] = Homo sapiens, SK-BR-3, Table 10, azasugar analogues on 6-methoxy coumarin, 72 hours, read-out: IC50 SKBr3
[14] = Homo sapiens, Table 10, azasugar analogues on 6-methoxy coumarin

SMILES: CO[C@@H]1[C@@H](O)[C@@H](O)[C@H](Oc2ccc3cc(NC(=O)c4ccccc4N)c(=O)oc3c2C)OC1(C)C [18 KU-260]
IC50 [1, 6]: 4.36 µM
IC50 ([2]; Table 8, unsaturated azasugar analogues, 72 hours, read-out: IC50 MCF-7): 1.73 µM
IC50 [3, 6]: 1.42 µM
IC50 ([4]; Table 8, unsaturated azasugar analogues, 72 hours, read-out: IC50 SKBr3): 1.61 ± 0.1 µM
IC50 [5, 6]: 4.23 µM

SMILES: CO[C@@H]1[C@@H](O)[C@@H](O)[C@H](Oc2ccc3cc(NC(=O)OCc4ccccc4)c(=O)oc3c2C)OC1(C)C [24, KU-249]
IC50 [1, 7]: 7.75 µM
IC50 [2, 8]: 2.07 ± 1.1 µM
IC50 [3, 7]: 4.07 µM
IC50 [4, 9]: 2.91 ± 1.1 µM
IC50 [5, 7]: 6.73 µM

SMILES: CO[C@@H]1[C@@H](O)[C@@H](O)[C@H](Oc2ccc3cc(NC(=O)C=Cc4ccccc4)c(=O)oc3c2C)OC1(C)C [25, KU-254]
IC50 [1, 7]: 3.42 µM
IC50 [2, 8]: > 50 µM
IC50 [4, 9]: > 50 µM
IC50 [5, 7]: 0.23 µM

SMILES: COc1ccc(C(=O)Nc2cc3ccc(O[C@@H]4OC(C)(C)[C@H](OC)[C@@H](O)[C@H]4O)c(C)c3oc2=O)cc1-c1ccccc1 [28, KU-252]
IC50 [1, 7]: 2.99 µM
IC50 [2, 8]: 29.4 ± 8.4 µM
IC50 [4, 9]: 5.41 ± 0.8 µM
IC50 [5, 7]: 0.35 µM

More lines, main results first:

IC50 ([2]; Homo sapiens, MCF7, Table 18, modified furanose or pyranose noviose replacements, read-out: IC50, MCF7): 1.56 ± 0.09 µM
IC50 ([2]; Homo sapiens, MCF7, text of Example 47, read-out: IC50 MCF-7): 1.56 ± 0.2 µM
IC50 ([4]; Homo sapiens, SK-BR-3, Table 18, modified furanose or pyranose noviose replacements, read-out: IC50, SKBr3): 3.11 ± 0.19 µM
IC50 ([4]; Homo sapiens, SK-BR-3, text of Example 47, read-out: IC50 SKBr3): 3.11 ± 0.03 µM
SMILES: CC(C)=CCc1cc(C(=O)Nc2cc3ccc(O[C@@H]4C[C@H](O)CCO4)c(C)c3oc2=O)ccc1O [18b, KU-430, 4-Hydroxy-N-(7-((2R,4R)-4-hydroxytetrahydro-2H-pyran-2-yloxy)-8-methyl-2-oxo-2H-chromen-3-yl)-3-(3-methylbut-2-enyl)benzamide]
times/fold more active than DHN2 (anti-proliferative activity) (cancer cell lines): ~3 fold
times/fold more active than novobiocin (anti-proliferative activity) (cancer cell lines): ~200 fold

IC50 ([1]; Table 11, azasugar analogues on 8-methoxy coumarin): 3.71 µM
IC50 ([2]; Homo sapiens, MCF7, Table 11, azasugar analogues on 8-methoxy coumarin, 72 hours, read-out: IC50 MCF-7): 1.39 ± 0.35 µM
IC50 ([3]; Homo sapiens, A549, Table 11, azasugar analogues on 8-methoxy coumarin): 3.06 µM
IC50 ([4]; Homo sapiens, SK-BR-3, Table 11, azasugar analogues on 8-methoxy coumarin, 72 hours, read-out: IC50 SKBr3): 0.97 ± 0.09 µM
IC50 ([5]; Homo sapiens, Table 11, azasugar analogues on 8-methoxy coumarin): 4.75 µM
SMILES: COc1cccc(-c2cc(C(=O)Nc3cc4ccc(OC5CCN(C)CC5)c(OC)c4oc3=O)ccc2OC)c1 [KU-275]

IC50 [1, 10]: 4.47 µM
IC50 [2, 11]: 1.41 ± 0.16 µM
IC50 [3, 12]: 3.19 µM
IC50 [4, 13]: 1.49 ± 0.07 µM
IC50 [5, 14]: 6.63 µM
SMILES: COc1cccc(-c2cc(C(=O)Nc3cc4cc(OC)c(OC5CCCN(C)C5)c(C)c4oc3=O)ccc2OC)c1 (stereo not drawn) [KU-281]

IC50 [1, 10]: 4.02 µM
IC50 [2, 11]: 2.82 ± 1.38 µM
IC50 [3, 12]: 3.5 µM
IC50 [4, 13]: 1.2 ± 0.1 µM
IC50 [5, 14]: 5.27 µM
SMILES: COc1cccc(-c2cc(C(=O)Nc3cc4cc(OC)c(OC5CCNCC5)c(C)c4oc3=O)ccc2OC)c1 [KU-286]
